# Reference: patent publication US12503452B2 (Curza Global, LLC, priority 2019, dated 2025)
# Structures can show the parent of a compound that is named as a salt. Where two headings read alike, the source gives them in different places.
# Legend:
# [1] = target: Rabbit Reticulocyte Lysate (eukaryotic protein synthesis); assay: Rabbit reticulocyte lysate luciferase assay (inhibition of eukaryotic protein synthesis); assay type: biochemical; settings: read-out: Rabbit reticulocyte IC50 (μM/% inhib.)
# Procedure: Inhibition of eukaryotic protein synthesis was determined using the Rabbit Reticulocyte Lysate System, Nuclease-Treated from Promega (catalog #L-4960) with slight modifications to the manufacturer's protocol. Compounds were serial diluted in 0.5 mL microcentrifuge tubes by mixing and transferring 50 μL from the highest concentration to 50 μL of water, mixing and transferring 50 μL of this 2-fold dilution to 50 μL of water. This mixing and transferring was repeated so that there are a total of 8 tubes with serial dilutions of compound at 10× the desired screening concentration that are ultimately diluted to 1× by the addition of rabbit reticulocyte luciferase synthesis mixture. Serial dilutions of compounds were added ([…]) to wells in a black round bottom 96-well plate. Water (2.5 μL) was used as a “no inhibitor” control in 4 wells/plate. No RNA control reaction mixture ([…]; see below) was used as a control in 4 wells/plate for background luminescence. Rabbit reticulocyte luciferase synthesis mixture (22.5 μL; see below) was added to wells with compounds or water mixture and incubated at 30° C. for 90 minutes. Luciferase assay reagent (25 μL) was added with luminescence measured using a BioTek Synergy HTX plate reader. % Inhibition was determined relative to no inhibitor controls.
# Rabbit reticulocyte luciferase synthesis mixture:
# • 1,000 μL rabbit reticulocyte lysate • 5.7 μL Luciferase Control RNA (1 μg/μL) • 26 μL complete amino acid mixture • 395 μL water No RNA Control • 70 μL rabbit reticulocyte lysate • 2 μL complete amino acid mixture • 28 μL water Minimum Inhibitory Concentration (MIC)
# [2] = tested on: E. coli S30 extract (bacterial protein synthesis); assay: E. coli S30 extract coupled transcription-translation luciferase assay (inhibition of bacterial protein synthesis); assay type: biochemical; settings: read-out: S30 IC50 (μM/% inhib.)
# Procedure: E. coli S30 extract: Inhibition of bacterial protein synthesis was determined using the E. coli S30 Extract System for Circular DNA (Promega catalog #L-2010) and Luciferase Assay Reagent (Promega catalog #E1500) with slight modifications to a published protocol. Fyfe, C., Sutcliffe, J. A. and Grossman, T. H. (2012) “Development and characterization of a Pseudomonas aeruginosa in vitro coupled transcription-translation assay system for evaluation of translation inhibitors” J. Microbiol. Methods 90(3), 256-261.
# Compounds were serial diluted in 0.5 mL microcentrifuge tubes by mixing and transferring 50 μL from the highest concentration to 50 μL of water, mixing and transferring 50 μL of this 2-fold dilution to 50 μL of water. This mixing and transferring was repeated so that there are a total of 8 tubes with serial dilutions of compound at 10× the desired screening concentration that are ultimately diluted to 1× by the addition of S30 luciferase synthesis mixture. Serial dilutions of compounds were added (2 μL) to wells in a black round bottom 96-well plate. Water (2 μL) was used as a “no inhibitor” control in 4 wells/plate. No DNA control reaction mixture (20 μL; see below) was used as a control in 4 wells/plate for background luminescence. S30 luciferase synthesis mixture (18 μL; see below) was added to wells with compounds or water mixture and incubated at 37° C. for 1 hour. Reactions were stopped by transferring to 4° C. refrigerator for 5 minutes then 25 μL of luciferase activity mix was added. Luminescence was measured using a BioTek Synergy HTX plate reader. % Inhibition was determined relative to no inhibitor controls.
# S30 luciferase synthesis mixture:
# • 445 μL S30 extract, circular • 712 μL S30 Premix without amino acids • 4.45 μL pBESTluc™ DNA (1 μg/μL) • 78 μL complete amino acid mixture • 267 μL water No DNA control: • 20 μL S30 extract, circular • 32 μL S30 Premix without amino acids • 7 μL complete amino acid mixture • 21 μL water Rabbit Reticulocyte lysate
# [3] = tested on: E. coli (Ec); assay: Broth microdilution minimum inhibitory concentration (MIC); assay type: cell-based; settings: Escherichia coli, E. coli, read-out: E. coli + bicarb MIC
# Procedure: A certified BSL-2 laboratory was used for testing. Compounds were evaluated using the broth microdilution minimum inhibitory concentration (MIC) and minimum bactericidal concentration (MBC) assays defined by Clinical and Laboratory Standards Institute (CLSI) in the M26-A guideline against S. aureus (Sa), E. coli (Ec), K. pneumoniae (Kp), A. baumannii (Ab), E. faecalis (Ef) and P. aeruginosa (Pa).
# MICs were determined using the Clinical Laboratory and Standards Institute (CLSI) Broth Microdilution Method with slight modification. Clinical and Laboratory Standards Institute (2012). “Methods for dilution antimicrobial susceptibility tests for bacteria that grow aerobically; approved standard, 9th ed. M07-A9. Clinical and Laboratory Standards Institute, Wayne, PA” Serial two-fold dilutions of compounds are prepared in sterile clear round-bottom 96-well plates.
# To prepare microdilution trays, two-fold dilutions of antimicrobial agent are prepared in growth medium: Cation-Adjusted Mueller-Hinton Broth (CAMHB), or CAMHB supplemented with sodium bicarbonate (6.25 or 25 mM final concentration prepared from a 1.0M stock solution) or CAMHB supplemented with heat inactivated human serum (Fisher Cat. #BP2657100) 0-50% by adding 200 μL of the highest concentration to be tested (64 μg/mL, for example) in row A, mixing and transferring 100 μL from row A to 100 μL growth medium in row B, then repeating the mixing and transferring through row H of the 96-well plate, discarding the excess 100 μL remaining. This slight modification to the CLSI protocol enables evaluation of MICs for 3 compounds per plate in triplicate, albeit with only 8 compound dilutions (CLSI protocol enables 2 compounds in triplicate with 10 dilutions). Bacterial suspensions are added to a final concentration of 5×10^4 CFU/well by adding 5 μL of a 1:10 dilution of a 0.5 McFarland suspension (1×10^8 CFU/mL) for each bacterium evaluated. Bacterial suspensions were prepared using the growth method described by CLSI. Well-isolated colonies (3-5 from an agar plate) were selected using a sterile loop and used to inoculate a tube containing 4 mL of CAMHB. The cultures are incubated at 35±2° C. until it achieves or exceeds the turbidity of the 0.5 McFarland standard, determined by measuring A600nm (usually two to six hours). When growth exceeds a 0.5 McFarland standard, the turbidity is adjusted with broth to be equivalent to a 0.5 McFarland standard.
# [4] = class by IC50 or % inhibition @ 1 μM
# [5] = growth medium supplemented with sodium bicarbonate
# [6] = growth medium with sodium bicarbonate
smiles,measurement,setting,value
CC(C)(N)C(=O)N1CCCC2C1CCCN2C(=O)Nc1ccn(-c2ccc(CN3CCC(N)CC3)cc2)c(=O)n1 (centres unmarked) [Compound 86],IC50,[1]; [4],> 1 µM
same,IC50,[2]; [4],> 1 µM
CC(C)(N)C(=O)N1CC2CCC1CN2C(=O)Nc1ccn(-c2ccc(CN3CCC(N)CC3)cc2)c(=O)n1 (centres unmarked) [Compound 87],IC50,[1]; [4],> 1 µM
same,IC50,[2]; [4],> 1 µM
C[C@@H]1CN(C(=O)C(C)(C)N)[C@H](C)CN1C(=O)Nc1ccn(-c2ccc(CN3CCC(N)CC3)cc2)c(=O)n1 [Compound 88],IC50,[1]; [4],> 1 µM
same,IC50,[2]; [4],> 1 µM
CCOC(=O)C(c1ccc(-n2ccc(NC(=O)N3CCN(C(=O)C(C)(C)N)CC3)nc2=O)cc1)N1CCC(N)CC1 (centres unmarked) [Compound 92],MIC,[3]; [5],> 32 µg/mL
same,IC50,[2]; [4],> 1 µM
CC(C)(N)C(=O)N1CCN(C(=O)Nc2ccn(-c3ccc(C(C(=O)O)N4CCC(N)CC4)cc3)c(=O)n2)CC1 (centres unmarked) [Compound 93],MIC,[3]; [5],> 32 µg/mL
same,IC50,[2]; [4],> 1 µM
Cc1cc(-n2ccc(NC(=O)N3CCN(C(=O)CC(C)(C)N)CC3)nc2=O)ccc1CN1CCC(N)CC1 [Compound 94],IC50,[1]; [4],> 1 µM
same,IC50,[2]; [4],> 1 µM
C[C@](N)(CO)C(=O)N1CCN(C(=O)Nc2ccn(-c3ccc(CN4CCC(N)CC4)cc3)c(=O)n2)CC1 [Compound 97],IC50,[1]; [4],> 1 µM
same,MIC,[3]; [5],8 to 32 µg/mL
same,IC50,[2]; [4],< 0.5 µM
C[C@H](N)C(=O)NC1CCN(Cc2ccc(-n3ccc(NC(=O)N4CCN(C(=O)[C@@](C)(N)CO)CC4)nc3=O)cc2)CC1 [Compound 100],IC50,[1]; [4],> 1 µM
same,IC50,[2]; [4],0.5 to 1 µM
Cc1cc(-n2ccc(NC(=O)N3CCN(C(=O)C(C)(N)CO)CC3)nc2=O)ccc1CN1CCC(N)CC1 (centres unmarked) [Compound 101],IC50,[1]; [4],> 1 µM
same,IC50,[2]; [4],0.5 to 1 µM
CC(C)(N)C(=O)N1CCN(C(=O)Nc2ccn(-c3cccc(CN4CCC(NC(=N)N)CC4)c3)c(=O)n2)CC1 [Compound 102],IC50,[1]; [4],> 1 µM
same,IC50,[2]; [4],> 1 µM
Cc1cc(-n2ccc(NC(=O)N3CCN(C(=O)C(C)(C)N)CC3)nc2=O)ccc1CN1CCC(NC(=N)N)CC1 [Compound 104],IC50,[1]; [4],> 1 µM
same,IC50,[2]; [4],< 0.5 µM
CC(C)(N)C(=O)N1CCN(C(=O)Nc2ccn(-c3ccc(CN4CCC(NC(=N)N)CC4)cc3)c(=O)n2)CC1 [Compound 105],IC50,[1]; [4],< 0.5 µM
same,IC50,[2]; [4],< 0.5 µM
CC(C)(N)CC(=O)N1CCN(C(=O)Nc2ccn(-c3ccc(CN4CCC(N)CC4)c(C(F)(F)F)c3)c(=O)n2)CC1 [Compound 106],IC50,[1]; [4],> 1 µM
same,IC50,[2]; [4],> 1 µM
CC(C)(N)C(=O)N1CCN(C(=O)Nc2ccn(-c3ccc(CN4CCC(C(F)(F)F)CC4)cc3)c(=O)n2)CC1 [Compound 107],IC50,[1]; [4],> 1 µM
same,IC50,[2]; [4],> 1 µM
CC(C)(N)C(=O)N1CCN(C(=O)Nc2ccn(-c3ccc(CN4CCOC(CN)C4)cc3)c(=O)n2)CC1 (centres unmarked) [Compound 135],IC50,[1]; [4],> 1 µM
same,IC50,[2]; [4],> 1 µM
CC(C)(N)C(=O)N1CCN(C(=O)Nc2ccn(-c3ccc(CC[N+]4(C)CCC(N)CC4)cc3)c(=O)n2)CC1 (centres unmarked) [Compound 196],IC50,[1]; [4],> 1 µM
same,IC50,[2]; [4],< 0.5 µM
C[C@H](N)C1CCN(Cc2ccc(-n3ccc(NC(=O)N4CCN(C(=O)C(C)(C)N)[C@H](C)C4)nc3=O)cc2)CC1 [Compound 206],IC50,[1]; [4],> 1 µM
same,IC50,[2]; [4],> 1 µM
C[C@H](N)C1CCN(Cc2ccc(-n3ccc(NC(=O)N4CCN(C(=O)[C@@](C)(N)CO)C[C@H]4C)nc3=O)cc2)CC1 [Compound 207],IC50,[1]; [4],> 1 µM
same,IC50,[2]; [4],> 1 µM
CC(C)(N)C(=O)N1CCN(C(=O)Nc2ccn(-c3ccc(CN4CC[C@@H](N)[C@H](F)C4)cc3)c(=O)n2)CC1 [Compound 208],MIC,[3]; [6],8 to 32 µg/mL
same,IC50,[2]; [4],> 1 µM
CN(C)C1CCN(Cc2ccc(-n3ccc(NC(=O)N4CCN(C(=O)C(C)(C)N)CC4)nc3=O)cc2)CC1 [Compound 214],MIC,[3]; [6],< 8 µg/mL
same,IC50,[2]; [4],< 0.5 µM
CC(C)(N)C(=O)N1CCN(C(=O)Nc2ccn(-c3ccc(CN4CCC(O)(CN)CC4)cc3)c(=O)n2)CC1 [Compound 215],MIC,[3]; [6],< 8 µg/mL
same,IC50,[2]; [4],< 0.5 µM
CO[C@@H]1CN(Cc2ccc(-n3ccc(NC(=O)N4CCN(C(=O)C(C)(C)N)CC4)nc3=O)cc2)CC[C@H]1N [Compound 216],MIC,[3]; [6],8 to 32 µg/mL
same,IC50,[2]; [4],> 1 µM
CC(C)(N)C(=O)N1CCN(C(=O)Nc2ccn(-c3ccc(CN4CCC(CCN)CC4)cc3)c(=O)n2)CC1 [Compound 218],IC50,[1]; [4],> 1 µM
same,MIC,[3]; [6],< 8 µg/mL
same,IC50,[2]; [4],< 0.5 µM
C[C@H](N)C1CCN(Cc2ccc(-n3ccc(NC(=O)N4CCN(C(=O)[C@@](C)(N)CO)CC4)nc3=O)cc2)CC1 [Compound 221],IC50,[1]; [4],> 1 µM
same,MIC,[3]; [6],< 8 µg/mL
same,IC50,[2]; [4],< 0.5 µM
CC(C)(N)C(=O)N1CCN(Cc2ccc(-n3ccc(NC(=O)N4CCN(C(=O)C(C)(C)N)CC4)nc3=O)cc2)CC1 [Compound 225],IC50,[1]; [4],> 1 µM
same,IC50,[2]; [4],> 1 µM
CC1(N)CCN(Cc2ccc(-n3ccc(NC(=O)N4CCN(C(=O)[C@@](C)(N)CO)CC4)nc3=O)cc2Cl)CC1 [Compound 360],IC50,[1]; % inhibition @ 1 μM,> 1 µM
same,IC50,[2]; % inhibition @ 1 μM,< 0.5 µM
CC(C)(N)CC(=O)N1CCN(C(=O)Nc2ccn(-c3cccc(CN4CCC(N)CC4)c3)c(=O)n2)CC1 [Compound 362],IC50,[1]; % inhibition @ 1 μM,> 1 µM
same,IC50,[2]; % inhibition @ 1 μM,> 1 µM
"CC(C)(N)CC(=O)N1CCN(C(=O)Nc2ccn(-c3cccc(CN4CCC(C)(N)CC4)c3)c(=O)n2)CC1 [Compound 363, hydrochloride salt]",IC50,[1]; % inhibition @ 1 μM,> 1 µM
same,IC50,[2]; % inhibition @ 1 μM,> 1 µM
"CC(C)[C@H](N)C(=O)NC(C)(C)C(=O)N1CCN(C(=O)Nc2ccn(-c3ccc(CN4CCC(N)CC4)cc3)c(=O)n2)CC1 [Compound 364, hydrochloride salt]",IC50,[1]; % inhibition @ 1 μM,> 1 µM
same,IC50,[2]; % inhibition @ 1 μM,< 0.5 µM
"CC(C)(N)C(=O)N1CCN(C(=O)Nc2ccn(-c3ccc(CN4CC(CCN)(C(=O)O)C4)cc3)c(=O)n2)CC1 [Compound 369, hydrochloride salt]",IC50,[1]; % inhibition @ 1 μM,> 1 µM
same,IC50,[2]; % inhibition @ 1 μM,> 1 µM
CC(C)(N)C(=O)N1CCN(C(=O)Nc2ccn(-c3ccc(CN4CCC(F)(F)CC4)cc3)c(=O)n2)CC1 [Compound 383],IC50,[1]; % inhibition @ 1 μM,> 1 µM
same,IC50,[2]; % inhibition @ 1 μM,> 1 µM
